Assay results published in patent US7790947B2 (priority 2001, dated 2010).

Legend:
[1] = system: TSS-1 production; assay: Inhibition of TSS-1 production by salt or acid residue in absorbent foam; format: cell-based, S. aureus; conditions: residual salt or acid in dried foam, between 0.1% and 10% weight percent of foam
[2] = molecular target: TSST-1 toxin (Staphylococcus aureus, UniProt P06886); conditions: mechanism unknown; cited from earlier work
[3] = system: TSST-1 toxin production by S. aureus; conditions: cited from earlier work
[4] = molecular target: hemoglobin (Homo sapiens, UniProt P68871); conditions: cited from earlier work
hemoglobin, sequence (P68871 2-147 limits assumed): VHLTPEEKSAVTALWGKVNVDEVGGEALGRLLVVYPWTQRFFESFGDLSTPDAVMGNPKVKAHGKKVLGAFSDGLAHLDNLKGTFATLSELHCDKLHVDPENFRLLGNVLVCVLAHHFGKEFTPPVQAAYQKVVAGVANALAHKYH
hemoglobin, sequence (P69905 2-142 partner limits assumed): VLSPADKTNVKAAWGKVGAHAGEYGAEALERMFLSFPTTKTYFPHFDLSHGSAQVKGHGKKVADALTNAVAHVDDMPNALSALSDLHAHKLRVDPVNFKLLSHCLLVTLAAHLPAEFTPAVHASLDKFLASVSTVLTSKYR

TSST-1 toxin, sequence (P06886 41-234 limits assumed): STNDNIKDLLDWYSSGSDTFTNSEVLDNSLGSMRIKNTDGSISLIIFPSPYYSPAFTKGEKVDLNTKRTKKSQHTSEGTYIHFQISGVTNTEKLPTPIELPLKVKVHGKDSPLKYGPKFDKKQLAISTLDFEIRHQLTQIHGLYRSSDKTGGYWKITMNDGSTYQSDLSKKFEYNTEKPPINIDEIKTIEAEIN

Molecule | inhibition of TSS-1 production [1] | effect on toxin (TSST-1) production by S. aureus [3] | other results
[Cl-].[Cl-].[Mg+2] [MgCl2] | inhibit TSS-1 production | – | –
O=C1O[C@H]([C@@H](O)CO)C(O)=C1O [ascorbic acid] | inhibit TSS-1 production | reduce toxin production and/or deactiviate the toxin TSST-1 | deactivation of the toxin [2]: deactivates the toxin
O=C(O)C(COP(=O)(O)O)OP(=O)(O)O (stereo not drawn) [BPG, 2,3-bisphosphoglycerate] | – | – | lowering of the affinity of oxygen for hemoglobin (factor) [4]: 26
tocopherol | – | reduce toxin production and/or deactiviate the toxin TSST-1 | –
O=C1O[C@H]([C@@H](O)CO)C([O-])=C1O.[Na+] [sodium ascorbate] | inhibit TSS-1 production | – | –
OCC(O)CO [glycerol] | – | reduce toxin production and/or deactiviate the toxin TSST-1 | –
[Ca+2].[Cl-].[Cl-] [CaCl2] | inhibit TSS-1 production | – | –
